Results published in patent US10028992B2, “Methods of treating muscular dystrophy” (BOARD OF REGENTS OF THE NEVADA SYSTEM OF HIGHER EDUCATION …, priority 2012, dated 2018).

Tested on: α7 integrin promoter
Assay: muscle cell-based assay: α7βgal+/− myoblasts/myotubes, LacZ reporter, β-galactosidase cleavage of FDG
Set-up: species or system mouse; Results in α7+/− β-galactosidase assay: scale not given here
Details: Myoblasts
In short: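 Primary α7βgal+/− mouse myoblasts (LacZ knocked into α7 integrin exon 1, promoter retained), differentiated; promoter activity read as β-galactosidase conversion of non-fluorescent FDG to fluorescein. Hits followed by dose-response, western analysis and myostatin counterscreen.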

SMILES | Results in α7+/− β-galactosidase assay (0.5 uM) | Results in α7+/− β-galactosidase assay (1 uM) | Results in α7+/− β-galactosidase assay (5 uM) | Results in α7+/− β-galactosidase assay (10 uM) | Results in α7+/− β-galactosidase assay (20 uM) | Results in α7+/− β-galactosidase assay (40 uM) | Result in α7+/− β-galactosidase assay (0.5 uM) | Result in α7+/− β-galactosidase assay (1 uM) | Result in α7+/− β-galactosidase assay (5 uM) | Result in α7+/− β-galactosidase assay (10 uM) | Result in α7+/− β-galactosidase assay (20 uM) | Result in α7+/− β-galactosidase assay (40 uM)
O=c1c2cc(-c3ccccc3)sc2nc2n1N=C(c1ccccc1)CS2 [drawing 693] | −0.04703 | −0.001 | 0.1857 | 0.01009 | 0.0113 | 0.00476 |  |  |  |  |  | 
Nc1ncnc(NCc2ccccc2)c1[N+](=O)[O-] [drawing 694] | 0.01911 | 0.00831 | 0.2463 | −0.04019 | −0.00635 | 0.02312 |  |  |  |  |  | 
O=CN1CCN(C(=O)CC(c2ccccc2)c2cc(Br)ccc2O)CC1 (stereo not drawn) [drawing 695] | 0.1751 | 0.03283 | 0.07723 | −0.1323 | 0.00725 | −0.04551 |  |  |  |  |  | 
Cc1ccc2c(c1)/C(=C/c1ccco1)C(=O)N2 [drawing 696] | 0.2035 | 0.02005 | 0.2293 | 0.07554 | 0.1241 | 0.1026 |  |  |  |  |  | 
O=C1CCC(C(=O)N2CCSCC2)CN1Cc1ccc(Cl)cc1 (stereo not drawn) [drawing 697] | 0.1419 | −0.02657 | 0.2626 | 0.4599 | 0.2652 | 0.222 |  |  |  |  |  | 
c1ccc(-c2cn3c4c(sc3n2)CCCC4)cc1 [drawing 698] | 0.1572 | 0.06589 | 0.03743 | 0.2239 | −0.06232 | −0.1797 |  |  |  |  |  | 
COc1ccccc1CC(=O)Nc1cc(S(=O)(=O)N2CCOCC2)ccc1N1CCOCC1 [drawing 699] | 0.122 | −0.02918 | 0.0982 | 0.2162 | −0.2175 | −0.3265 |  |  |  |  |  | 
COc1ccccc1/C=C1\C(=O)Nc2ccccc21 [drawing 700] | 0.2078 | 0.1004 | 0.141 | 0.312 | −0.00605 | −0.06928 |  |  |  |  |  | 
CN1C(=O)N(CC(=O)N2CCN(S(=O)(=O)c3ccc(Cl)s3)CC2)C(=O)C12CCCCC2 [drawing 701] | 0.1065 | 0.03367 | 0.1338 | 0.2611 | −0.306 | −0.5075 |  |  |  |  |  | 
Cn1cc(CN2CCC(C(=O)Nc3cccc(-c4cscn4)c3)CC2)cn1 [drawing 702] | 0.1618 | 0.05749 | 0.02884 | 0.2457 | −0.3975 | −0.5369 |  |  |  |  |  | 
O=C1Cc2ccccc2/C1=C\c1ccc([N+](=O)[O-])cc1 [drawing 703] | 0.04429 | −0.00937 | 0.02036 | 0.1452 | −0.2086 | −0.4972 |  |  |  |  |  | 
CCCC(=O)OCC(=O)c1[nH]c(C)c(C(C)=O)c1C [drawing 704] | 0.1272 | 0.03672 | 0.01568 | 0.2296 | −0.2776 | −0.5017 |  |  |  |  |  | 
CCO/C(C)=C1\C(=O)Nc2ccccc21 [drawing 705] | −0.00711 | 0.04915 | 0.06742 | 0.09535 | −0.0389 | −0.1063 |  |  |  |  |  | 
COc1ccc(C(=O)Nc2ccc(Cl)cn2)cc1Cl [drawing 706] |  |  |  |  |  |  | 0.1451 | 0.1676 | −0.1344 | −0.2645 | −0.7598 | −0.8234
CCOc1ccccc1NC(=O)c1cccc2c1C(=O)N(C1CCCCC1)C2 [drawing 707] |  |  |  |  |  |  | 0.2793 | 0.1772 | −0.01616 | 0.02001 | 0.1258 | 0.02179
CCOC(=O)C1CCCN(C(=O)CNS(=O)(=O)c2ccc(Br)s2)C1 (stereo not drawn) [drawing 708] |  |  |  |  |  |  | −0.01823 | 0.07424 | −0.1417 | −0.1278 | −0.1459 | −0.2189
Cc1nnc(SCC(=O)c2ccc(Br)cc2)s1 [drawing 709] |  |  |  |  |  |  | 0.3789 | 0.2434 | 0.08324 | 0.1001 | 0.111 | −0.07647
Cn1ccc(C(=O)Nc2cccnc2Cl)n1 [drawing 710] |  |  |  |  |  |  | 0.1419 | 0.09145 | 0.0569 | 0.1922 | −0.0349 | −0.1785
CCOC(=O)c1sc(=N)n(-c2ccc(OC)cc2)c1C [drawing 711] |  |  |  |  |  |  | 0.2274 | 0.1661 | −0.01196 | 0.01787 | −0.3971 | −0.6044
COc1c(Cl)cc(/C=C2\C(=O)Nc3ccccc32)cc1Cl [drawing 712] |  |  |  |  |  |  | 0.2725 | 0.2417 | 0.01335 | 0.04886 | 0.1098 | −0.01132
COc1c(Cl)cc(/C=C2\C(=O)Nc3ccccc32)cc1Cl [drawing 713] |  |  |  |  |  |  | 0.3543 | 0.1322 | −0.0815 | −0.2165 | −0.302 | −0.4698
CC(=O)Oc1c(Cl)cc(/C=C2\C(=O)Nc3ccccc32)cc1Cl [drawing 714] |  |  |  |  |  |  | 0.1697 | −0.08406 | 0.02082 | 0.02563 | −0.00439 | −0.1892
CCN(CC)CCNC(=O)c1c(C)[nH]c(CC2C(=O)Nc3ccc(F)cc32)c1C (stereo not drawn) [drawing 715] |  |  |  |  |  |  | −0.1627 | 0.03203 | −0.6776 | −0.9863 | −0.9859 | −0.9872
O=C1Nc2ccccc2/C1=C1\Nc2ccccc2C1=O [drawing 716] |  |  |  |  |  |  | 0.06101 | 0.0859 | −0.394 | −0.2837 | −0.157 | −0.1933
Cc1[nH]c(/C=C2\C(=O)Nc3ccccc32)c(C)c1CCC(=O)O [drawing 717] |  |  |  |  |  |  | 0.01086 | 0.05675 | −0.0938 | −0.1338 | −0.04064 | −0.0832
Cc1cc(C)c(/C=C2\C(=O)Nc3ccccc32)[nH]1 [drawing 718] |  |  |  |  |  |  | 0.03555 | 0.05336 | −0.2683 | −0.3603 | −0.2204 | −0.3534
Cc1cc(C)c(/C=C2\C(=O)Nc3ccccc32)[nH]1 [drawing 720] |  |  |  |  |  |  | −0.06315 | −0.0048 | −0.2673 | −0.3421 | −0.3332 | −0.4797
Cc1cc(C)c(/C=C2\C(=O)Nc3ccccc32)[nH]1 [drawing 721] |  |  |  |  |  |  | −0.05673 | −0.01961 | −0.2468 | −0.2855 | −0.1121 | −0.2422
O=C1Nc2ccccc2/C1=C1/Nc2ccccc2/C1=N\O [drawing 722] |  |  |  |  |  |  | 0.1752 | 0.3255 | −0.404 | −0.681 | −0.6914 | −0.8176
